In the NIST ThermoML archive (doi:10.1016/j.jct.2005.08.005):

Key:
[1] = refractive index (other wavelength) (dimensionless); xn = mol fraction of the nth substance listed; details: 101.3 kPa, Liquid, Wavelength=632.8 nm, Method described in references 3 and 4 of the article, x2 = 0
[2] = refractive index (other wavelength) (dimensionless); details: 101.3 kPa, Liquid, Wavelength=632.8 nm, Method described in references 3 and 4 of the article

CCCCCCCCCCCCCCCC [hexadecane] + N#Cc1ccccc1
[1]
Details | refractive index
294.85 K | 1.4324
295.86 K | 1.432
296.96 K | 1.4315
297.9 K | 1.4312
299.71 K | 1.4304
301.21 K | 1.4297
302.84 K | 1.4291
304.26 K | 1.4285

N#Cc1ccccc1 [benzonitrile]
[2]
Details | refractive index
294.62 K | 1.5246
296.97 K | 1.5235
299.08 K | 1.5224
301.39 K | 1.5213
303.42 K | 1.5203
305.92 K | 1.5191

CCCCCCCCCCCCCCCC [hexadecane]
[2]
Details | refractive index
294.85 K | 1.4324
295.86 K | 1.432
296.96 K | 1.4315
297.9 K | 1.4312
299.71 K | 1.4304
301.21 K | 1.4297
302.84 K | 1.4291
304.26 K | 1.4285
